From patent US10758534B2 (Vertex Pharmaceuticals Incorporated, priority 2014, dated 2020) come the findings set out here.

The test deals with T1, F508del (Homo sapiens, UniProt P13569, DEL508-508).
T1 construct: expressed in transfected cells
As to the kind of experiment: Protocol 2: FRET membrane potential optical assay (VIPR), identification of correction compounds. It is filed as cell-based. In outline:
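NIH3T3 mouse fibroblasts stably expressing F508del-CFTR incubated with compound 16 h at 37 °C in serum-free medium, then loaded with CC2-DMPE/DiSBAC2(3) FRET dyes. Channel activated with 10 μM forskolin plus 20 μM genistein in Cl⁻-free (gluconate) bath; depolarisation from Cl⁻ efflux read on VIPR II.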

The mark [1] stands for this setting: Table 3, compounds of Table 1 as modulators of CFTR activity, protocol not stated.
The mark [2] stands for this setting: F508del CFTR modulator activity, compounds of Table 1, read-out: EC30.

Where two headings read alike, the source gives them in different places.

T1 sequence (P13569 with tags, fused parts or gaps DEL508-508): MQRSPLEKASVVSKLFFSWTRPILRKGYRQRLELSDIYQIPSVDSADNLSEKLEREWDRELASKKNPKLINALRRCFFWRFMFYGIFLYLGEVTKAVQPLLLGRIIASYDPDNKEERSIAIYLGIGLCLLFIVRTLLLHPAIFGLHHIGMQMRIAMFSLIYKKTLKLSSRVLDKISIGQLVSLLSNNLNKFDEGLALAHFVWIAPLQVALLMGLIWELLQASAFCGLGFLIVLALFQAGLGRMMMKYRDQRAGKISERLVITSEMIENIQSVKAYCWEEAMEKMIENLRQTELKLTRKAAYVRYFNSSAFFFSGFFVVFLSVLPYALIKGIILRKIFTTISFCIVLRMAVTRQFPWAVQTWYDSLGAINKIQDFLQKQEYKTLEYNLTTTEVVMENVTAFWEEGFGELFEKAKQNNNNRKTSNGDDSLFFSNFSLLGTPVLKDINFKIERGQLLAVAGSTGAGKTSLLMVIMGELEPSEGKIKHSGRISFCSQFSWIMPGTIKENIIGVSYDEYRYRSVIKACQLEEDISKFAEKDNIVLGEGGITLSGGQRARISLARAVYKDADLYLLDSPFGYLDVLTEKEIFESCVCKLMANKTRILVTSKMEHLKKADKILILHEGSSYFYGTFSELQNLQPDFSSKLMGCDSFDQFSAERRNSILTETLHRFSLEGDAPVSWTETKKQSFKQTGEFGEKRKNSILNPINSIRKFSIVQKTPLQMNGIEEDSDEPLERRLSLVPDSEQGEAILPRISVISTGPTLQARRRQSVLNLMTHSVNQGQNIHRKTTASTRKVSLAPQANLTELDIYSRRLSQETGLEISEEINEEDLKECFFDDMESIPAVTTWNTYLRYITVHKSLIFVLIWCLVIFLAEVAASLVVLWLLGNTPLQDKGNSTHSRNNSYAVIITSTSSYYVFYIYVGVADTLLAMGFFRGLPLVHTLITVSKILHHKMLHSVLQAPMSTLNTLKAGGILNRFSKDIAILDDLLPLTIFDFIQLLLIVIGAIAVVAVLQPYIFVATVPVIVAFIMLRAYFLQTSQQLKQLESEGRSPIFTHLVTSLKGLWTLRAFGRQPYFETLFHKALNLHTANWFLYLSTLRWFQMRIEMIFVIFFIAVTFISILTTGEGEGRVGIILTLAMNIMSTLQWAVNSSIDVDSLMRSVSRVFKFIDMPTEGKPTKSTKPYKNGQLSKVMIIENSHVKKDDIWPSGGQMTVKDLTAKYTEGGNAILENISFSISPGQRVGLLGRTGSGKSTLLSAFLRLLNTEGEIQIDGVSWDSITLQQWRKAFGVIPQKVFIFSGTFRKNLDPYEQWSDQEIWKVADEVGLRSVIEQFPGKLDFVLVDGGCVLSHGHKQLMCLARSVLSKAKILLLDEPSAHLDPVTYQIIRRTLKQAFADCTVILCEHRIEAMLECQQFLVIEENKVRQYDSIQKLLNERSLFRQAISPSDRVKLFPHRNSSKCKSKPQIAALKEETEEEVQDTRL

For the compound `CCOc1ccccc1-c1cc(C(=O)NS(=O)(=O)c2ccccc2)n(Cc2c(C)cccc2C)n1` [Compound 152, N-(benzenesulfonyl)-2-[(2,6-dimethylphenyl)methyl]-5-(2-ethoxyphenyl)pyrazole-3-carboxamide], the EC30 result under setting [1] is “+++ (“+++” means <3 uM)”.

As for `Cc1cc(C)c(Oc2nc(-c3cccc(CN4CCCCC4)c3)ccc2C(=O)NS(=O)(=O)c2cccc(N)n2)c(C)c1` [Compound 686, N-[(6-amino-2-pyridyl)sulfonyl]-6-[13-(1-piperidylmethyl)phenyl]-2-(2,4,6-trimethylphenoxy)pyridine-3-carboxamide], the EC30 result under setting [1] was “+++ (“+++” means <3 uM)”.

Turning to `Cc1ccc(-c2nc(C(C)(C)C)ccc2C(=O)NS(=O)(=O)c2cccc(N)c2)cc1C` [Compound 274, N-(3-aminophenyl)sulfonyl-6-tert-butyl-2-(3,4-dimethylphenyl)pyridine-3-carboxamide], the EC30 entry under setting [1] is recorded as “+++ (“+++” means <3 uM)”.

As to `CC1CN(c2ncccc2C(=O)NS(=O)(=O)c2cccc(N3CCc4ccccc4C3)n2)C(C)(C)C1` (stereo not shown) [Compound 2098, N—[[6-(3,4-dihydro-1H-isoquinolin-2-yl)-2-pyridyl]sulfonyl]-2-(2,2,4-trimethylpyrrolidin-1-yl)pyridine-3-carboxamide], the EC30 under setting [2] is less than 3 µM.

Consider `CC[C@H](C)COc1ccn(-c2ccc(C(=O)NS(=O)(=O)c3cccnc3N)c(N3C[C@@H](C)CC3(C)C)n2)n1` [Compound 2458, N-[(2-amino-3-pyridyl)sulfonyl]-6-[3-[(2S)-2-methylbutoxy]pyrazol-1-yl]-2-[(4S)-2,2,4-trimethylpyrrolidin-1-yl]pyridine-3-carboxamide], for which the EC30 under setting [2] was less than 3 µM.

Consider `CC(C)COc1cc(F)cc(-c2ccc(C(=O)NS(=O)(=O)c3cccc(N)n3)c(OC(C)c3cccc(F)c3)n2)c1` (stereo not shown) [Compound 562, N-[(6-amino-2-pyridyl)sulfonyl]-6-(3-fluoro-5-isobutoxy-phenyl)-2-[1-(3-fluorophenyl)ethoxy]pyridine-3-carboxamide], for which the EC30 entry under setting [1] is listed as “+++ (“+++” means <3 uM)”.

For `Cc1cccc(C)c1Cn1nc(-c2cccc(C(F)F)c2)cc1C(=O)NS(=O)(=O)c1ccccc1` [Compound 315, N-(benzenesulfonyl)-5-[3-(difluoromethyl)phenyl]-2-[(2,6-dimethylphenyl)methyl]pyrazole-3-carboxamide], under setting [1], the EC30 result is “+++ (“+++” means <3 uM)”.

Turning to `CC1CN(c2ncc(/C=C/c3ccc(C(F)(F)F)cc3)cc2C(=O)NS(=O)(=O)c2cccc(N)n2)C(C)(C)C1` (stereo not shown) [Compound 2014, N-[(6-amino-2-pyridyl)sulfonyl]-5-[(E)-2-[4-(trifluoromethyl)phenyl]vinyl]-2-(2,2,4-trimethylpyrrolidin-1-yl)pyridine-3-carboxamide], under setting [2], the EC30 was less than 3 µM.

On to `CC1CN(c2ncccc2C(=O)NS(=O)(=O)c2cccc(OCc3cccc4ccccc34)n2)C(C)(C)C1` (stereo not shown) [Compound 2270, N—[[6-(1-naphthylmethoxy)-2-pyridyl]sulfonyl]-2-(2,2,4-trimethylpyrrolidin-1-yl)pyridine-3-carboxamide], for which the EC30 under setting [2] was less than 3 µM.

`COc1c(F)cccc1-c1ccc(C(=O)NS(=O)(=O)c2cccnc2N)c(N2C[C@@H](C)CC2(C)C)n1` [Compound 2355, N-[(2-amino-3-pyridyl)sulfonyl]-6-(3-fluoro-2-methoxy-phenyl)-2-[(4S)-2,2,4-trimethylpyrrolidin-1-yl]pyridine-3-carboxamide]: under setting [2], the EC30 is less than 3 µM.

Consider `Cc1cc(C)c(Cc2nn(C(C)(C)C)cc2C(=O)NS(=O)(=O)c2cccc(N)c2)c(C)c1` [Compound 324, N-(3-aminophenyl) sulfonyl-1-tert-butyl-3-[(2,4,6-trimethylphenyl)methyl]pyrazole-4-carboxamide], for which the EC30 entry under setting [1] is “++ (“++” means between 3 uM and 10 uM)”.

Regarding `CC(C)COc1cccc(-c2ccc(C(=O)NS(=O)(=O)c3cccc(N)n3)c(N3CCC(C)CC3)n2)c1` [Compound 777, N-[(6-amino-2-pyridyl)sulfonyl]-6-(3-isobutoxyphenyl)-2-(4-methyl-1-piperidyl)pyridine-3-carboxamide], under setting [1], the EC30 result was “+++ (“+++” means <3 uM)”.

In the case of `COc1ccc(-c2nc(C(C)(C)C)ccc2C(=O)NS(=O)(=O)c2cccc(N)c2)cc1` [Compound 550, N-(3-aminophenyl)sulfonyl-6-tert-butyl-2-(4-methoxyphenyl)pyridine-3-carboxamide], the concentration for an effect of 30% (EC30) entry under setting [1] was “++ (“++” means between 3 uM and 10 uM)”.

For the compound `COc1cccnc1S(=O)(=O)NC(=O)c1cc(C(C)(C)C)nn1Cc1c(C)cc(C)cc1C` [Compound 44, 5-tert-butyl-N-[(3-methoxy-2-pyridyl)sulfonyl]-2-[(2,4,6-trimethylphenyl)methyl]pyrazole-3-carboxamide], the EC30 entry under setting [1] was “++ (“++” means between 3 uM and 10 uM)”.

For the compound `CC1CN(c2nc(-c3ccc(F)cc3)ccc2C(=O)NS(=O)(=O)c2cccc(N)n2)C(C)(C)C1` (stereo not shown) [Compound 712, N-[(6-amino-2-pyridyl)sulfonyl]-6-(4-fluorophenyl)-2-(2,2,4-trimethylpyrrolidin-1-yl)pyridine-3-carboxamide], under setting [1], the EC30 result is recorded as “+++ (“+++” means <3 uM)”.

With `C[C@@H]1CN(c2nc(-c3cccc(C(F)(F)F)c3)ccc2C(=O)NS(=O)(=O)N2CC[C@H](N)C2)C(C)(C)C1` [Compound 2220, N-[(3S)-3-aminopyrrolidin-1-yl]sulfonyl-6-[3-(trifluoromethyl)phenyl]-2-[(4S)-2,2,4-trimethylpyrrolidin-1-yl]pyridine-3-carboxamide], the EC30 under setting [2] was 3 to 10 µM.

For `CC(C)COc1cc(F)cc(-c2ccc(C(=O)NS(=O)(=O)c3cccc(N)n3)c(N3CC(C)CC34CCC4)n2)c1` (single isomer, unassigned) [Compound 2552, N-[(6-amino-2-pyridyl)sulfonyl]-6-(3-fluoro-5-isobutoxy-phenyl)-2-(6-methyl-8-azaspiro[3.4]octa N-8-yl)pyridine-3-carboxamide], the EC30 result (F508del CFTR modulator activity, compounds of Table 1) is listed as “+++ (“+++” means <3 uM)”.

Consider `Cc1ccc(-c2cc(C(=O)NS(=O)(=O)c3ccccc3)n(Cc3c(C)cccc3C)n2)cc1` [Compound 199, N-(benzenesulfonyl)-2-[(2,6-dimethylphenyl)methyl]-5-(p-tolyl)pyrazole-3-carboxamide], for which, under setting [1], the 30% effect concentration (EC30) entry is listed as “+++ (“+++” means <3 uM)”.

In the case of `CC1CN(c2ncccc2C(=O)NS(=O)(=O)c2cccc(OCc3ccc4c(c3)OCO4)n2)C(C)(C)C1` (stereo not shown) [Compound 2169, N—[[6-(1,3-benzodioxol-5-ylmethoxy)-2-pyridyl]sulfonyl]-2-(2,2,4-trimethylpyrrolidin-1-yl)pyridine-3-carboxamide], the EC30 under setting [2] is less than 3 µM.

`CC(C)Oc1ccc(-c2ccc(C(=O)NS(=O)(=O)c3cccc(N)n3)c(N3CCCC(F)C3)n2)cn1` (stereo not shown) [Compound 745, N-[(6-amino-2-pyridyl)sulfonyl]-2-(3-fluoro-1-piperidyl)-6-(6-isopropoxy-3-pyridyl)pyridine-3-carboxamide]: the EC30 result under setting [1] is “++ (“++” means between 3 uM and 10 uM)”.

Consider `CC(C)COc1cc(F)cc(-c2ccc(C(=O)NS(=O)(=O)c3cccc(N)n3)c(NCC3CCCCC3)n2)c1` [Compound 2375, N-[(6-amino-2-pyridyl)sulfonyl]-2-(cyclohexylmethylamino)-6-(3-fluoro-5-isobutoxy-phenyl)pyridine-3-carboxamide], for which the EC30 under setting [2] fell in the range of 3 to 10 µM.

Turning to `CCOCCN(C)c1ncc(-c2ccc(C(=O)NS(=O)(=O)c3cccc(N)n3)c(N3C[C@@H](C)CC3(C)C)n2)cc1C` [Compound 2682], the EC30 under setting [2] was less than 3 µM.
